According to BigSolDB 2.1:

CC(=O)C1C(=O)C=C(C)OC1=O (centres undefined)
solubility (mole fraction) (in 2-butanone, 288.35 K): 0.0125
solubility (mole fraction) (in 2-butanone, 292.15 K): 0.0153
solubility (mole fraction) (in 2-butanone, 296.45 K): 0.0165
solubility (mole fraction) (in 2-butanone, 300.35 K): 0.0196
solubility (mole fraction) (in 2-butanone, 304.05 K): 0.0227
solubility (mole fraction) (in 2-butanone, 308.05 K): 0.0285
solubility (mole fraction) (in 2-butanone, 312.15 K): 0.0315
solubility (mole fraction) (in 2-butanone, 315.75 K): 0.037
solubility (mole fraction) (in DMAc, 288.35 K): 0.0941
solubility (mole fraction) (in DMAc, 292.15 K): 0.111
solubility (mole fraction) (in DMAc, 296.45 K): 0.12
solubility (mole fraction) (in DMAc, 300.45 K): 0.135
solubility (mole fraction) (in DMAc, 304.45 K): 0.15
solubility (mole fraction) (in DMAc, 308.25 K): 0.168
solubility (mole fraction) (in DMAc, 312.15 K): 0.19
solubility (mole fraction) (in DMAc, 316.35 K): 0.205
solubility (mole fraction) (in DMF, 288.5 K): 0.0744
solubility (mole fraction) (in DMF, 292.45 K): 0.0857
solubility (mole fraction) (in DMF, 296.35 K): 0.093
solubility (mole fraction) (in DMF, 299.95 K): 0.105
solubility (mole fraction) (in DMF, 304.45 K): 0.123
solubility (mole fraction) (in DMF, 307.85 K): 0.139
solubility (mole fraction) (in DMF, 312.35 K): 0.162
solubility (mole fraction) (in DMF, 315.85 K): 0.181
solubility (mole fraction) (in DMSO, 288.15 K): 0.0267
solubility (mole fraction) (in DMSO, 292.15 K): 0.0314
solubility (mole fraction) (in DMSO, 296.15 K): 0.0383
solubility (mole fraction) (in DMSO, 300.15 K): 0.0462
solubility (mole fraction) (in DMSO, 304.15 K): 0.0544
solubility (mole fraction) (in DMSO, 308.15 K): 0.0599
solubility (mole fraction) (in DMSO, 312.15 K): 0.0738
solubility (mole fraction) (in DMSO, 316.15 K): 0.0874
solubility (mole fraction) (in acetone, 288.15 K): 0.0477
solubility (mole fraction) (in acetone, 291.85 K): 0.0547
solubility (mole fraction) (in acetone, 296.15 K): 0.0587
solubility (mole fraction) (in acetone, 300.25 K): 0.0695
solubility (mole fraction) (in acetone, 304.15 K): 0.0812
solubility (mole fraction) (in acetone, 308.15 K): 0.0964
solubility (mole fraction) (in acetone, 312.05 K): 0.111
solubility (mole fraction) (in acetone, 316.25 K): 0.13
solubility (mole fraction) (in acetonitrile, 288.35 K): 0.039
solubility (mole fraction) (in acetonitrile, 292.35 K): 0.0489
solubility (mole fraction) (in acetonitrile, 296.25 K): 0.0557
solubility (mole fraction) (in acetonitrile, 300.35 K): 0.0634
solubility (mole fraction) (in acetonitrile, 304.05 K): 0.0733
solubility (mole fraction) (in acetonitrile, 308.15 K): 0.0887
solubility (mole fraction) (in acetonitrile, 312.65 K): 0.107
solubility (mole fraction) (in acetonitrile, 316.25 K): 0.123
solubility (mole fraction) (in ethanol, 288.25 K): 0.00512
solubility (mole fraction) (in ethanol, 291.95 K): 0.00652
solubility (mole fraction) (in ethanol, 296.25 K): 0.00812
solubility (mole fraction) (in ethanol, 300.35 K): 0.00941
solubility (mole fraction) (in ethanol, 303.65 K): 0.0109
solubility (mole fraction) (in ethanol, 308.55 K): 0.0135
solubility (mole fraction) (in ethanol, 312.65 K): 0.0176
solubility (mole fraction) (in ethanol, 316.15 K): 0.0217
solubility (mole fraction) (in ethyl acetate, 288.45 K): 0.0499
solubility (mole fraction) (in ethyl acetate, 292.45 K): 0.0571
solubility (mole fraction) (in ethyl acetate, 295.95 K): 0.0646
solubility (mole fraction) (in ethyl acetate, 300.25 K): 0.0714
solubility (mole fraction) (in ethyl acetate, 304.05 K): 0.081
solubility (mole fraction) (in ethyl acetate, 307.95 K): 0.0938
solubility (mole fraction) (in ethyl acetate, 312.25 K): 0.109
solubility (mole fraction) (in ethyl acetate, 316.35 K): 0.128
solubility (mole fraction) (in ethyl formate, 288.05 K): 0.0536
solubility (mole fraction) (in ethyl formate, 291.95 K): 0.061
solubility (mole fraction) (in ethyl formate, 296.15 K): 0.067
solubility (mole fraction) (in ethyl formate, 300.05 K): 0.0765
solubility (mole fraction) (in ethyl formate, 304.15 K): 0.0894
solubility (mole fraction) (in ethyl formate, 308.45 K): 0.104
solubility (mole fraction) (in ethyl formate, 312.45 K): 0.119
solubility (mole fraction) (in ethyl formate, 315.85 K): 0.135
solubility (mole fraction) (in isopropanol, 288.05 K): 0.00448
solubility (mole fraction) (in isopropanol, 292.35 K): 0.0056
solubility (mole fraction) (in isopropanol, 296.55 K): 0.00709
solubility (mole fraction) (in isopropanol, 300.15 K): 0.00876
solubility (mole fraction) (in isopropanol, 304.65 K): 0.0105
solubility (mole fraction) (in isopropanol, 308.15 K): 0.0127
solubility (mole fraction) (in isopropanol, 312.35 K): 0.0168
solubility (mole fraction) (in isopropanol, 315.65 K): 0.0202
solubility (mole fraction) (in methanol, 288.05 K): 0.00588
solubility (mole fraction) (in methanol, 292.35 K): 0.00716
solubility (mole fraction) (in methanol, 296.05 K): 0.00781
solubility (mole fraction) (in methanol, 300.15 K): 0.0104
solubility (mole fraction) (in methanol, 303.95 K): 0.0113
solubility (mole fraction) (in methanol, 308.55 K): 0.0149
solubility (mole fraction) (in methanol, 312.15 K): 0.0174
solubility (mole fraction) (in methanol, 316.05 K): 0.022
solubility (mole fraction) (in n-pentanol, 287.75 K): 0.00604
solubility (mole fraction) (in n-pentanol, 291.95 K): 0.00758
solubility (mole fraction) (in n-pentanol, 296.25 K): 0.00959
solubility (mole fraction) (in n-pentanol, 300.35 K): 0.0117
solubility (mole fraction) (in n-pentanol, 304.15 K): 0.0148
solubility (mole fraction) (in n-pentanol, 308.35 K): 0.0189
solubility (mole fraction) (in n-pentanol, 312.15 K): 0.0233
solubility (mole fraction) (in n-pentanol, 315.95 K): 0.0284
solubility (mole fraction) (in n-propanol, 287.95 K): 0.00523
solubility (mole fraction) (in n-propanol, 292.65 K): 0.00657
solubility (mole fraction) (in n-propanol, 296.35 K): 0.00836
solubility (mole fraction) (in n-propanol, 300.55 K): 0.00974
solubility (mole fraction) (in n-propanol, 304.35 K): 0.0118
solubility (mole fraction) (in n-propanol, 308.15 K): 0.0143
solubility (mole fraction) (in n-propanol, 312.65 K): 0.0187
solubility (mole fraction) (in n-propanol, 316.35 K): 0.0224
